# Read-outs that look alike come from different tables or passages of the source.
# Experiments:
# Assay type in all cases: biochemical
# PKACα (PRKACA) = target: T1, PKACα (PRKACA) (Homo sapiens, UniProt P17612); test: fluorescence coupling (TR-FRET) enzymatic assay, PKACA off-target control; details: 10 pM enzyme, 1 μM ATP, 50 nM Ulight-CREBTide, one hour room temperature
# T1 construct: GST; purchased Carna BioSciences 01-127
# Protocol: (§1) Dose-response curves for compounds of the present invention were determined using a fluorescence coupling enzymatic assay using purified C-terminal truncated human ROCK1 catalytic domain (amino acids 1-477 of accession number NP_005397.1) fused to GST (Carna BioSciences, Catalog #01-109) and purified C-terminal truncated human ROCK2 enzyme kinase domain (amino acids 1-553 of accession number NP_004841.2) fused to GST BioSciences, Catalog #01-110). In addition, full length cGMP-dependent protein kinase 1 (PKG or PRKG1; amino acids 1-686 of accession number NP_006249.1) fused to GST (Carna BioSciences, Catalog #01-142), full length PKACα (PRKACA; amino acids 1-351 of accession number NP_002721.1) fused to GST (Carna BioSciences, Catalog #01-127), and C-terminal truncated human AKT1 catalytic domain (amino acids 104-480 of accession number NP_005154.1) fused to GST Biosciences, Catalog #01-101) were used as a control to measure any non-desired off-target kinase activity.
# (§2) Briefly, compounds of the present invention were solubilized in DMSO and a series of 12, three-fold serial dilutions were made for each compound in 2.5% DMSO. The initial starting concentration for the serial dilutions of each compound was 10 μM or 100 μM. Control samples lacking compound, ROCK enzyme or ATP also were prepared and processed in parallel with compound test samples.
# (§3) A 4 μL aliquot of each serial dilution of test compound diluted in H2O with 2.5% DMSO was added to a well containing 4 μL of 10 nM purified N-truncated ROCK1 (4 nM final concentration), 10 nM purified N-truncated ROCK2 enzyme (4 nM final concentration), 1.25 nM AKT1 (0.5 nM final concentration), 25 pM PKACA (10 pM final concentration) or 20 nM PKG (8 nM final concentration), in reaction buffer containing 50 mM Hepes, pH 7.5, 1 mM EGTA, 10 mM MgCl2, 2 mM DTT, and 0.01% Tween 20 (final concentration). To initiate the enzymatic reaction, 2 μL of a solution was added to each well to provide a final concentration of 50 nM Ulight-CREBTide peptide substrate (Perkin Elmer, Catalog #TRF0107) and 4 μM ATP for ROCK1 and AKT1 assays, […] for ROCK2 assays and 30 μM ATP for PKG assays, or 1 μM ATP for PKACA assays. The reaction mixtures were incubated at room temperature for one hour. After one hour, the reaction was stopped by the addition of a 10 solution of an Europium-labelled phospho-CREB (Ser133) antibody (Perkin Elmer, Catalog #TRF0200) in LANCE buffer supplemented with 20 mM EDTA. The stopped reaction mixtures were incubated at room temperature for 90 minutes. The TR-FRET 665/620 ratios were determined using a Clariostar monochromator plate reader instrument (BMG LabTech) in accordance with the manufacturer's instructions. The ICso value for each compound was determined from each dose-response curve using GraphPad Prism 7 software with a sigmodial dose response. Key: A is IC50≤100 nM; B is 100 nM<IC50<1000 nM; C is 1,000<IC50≤10,000 nM; D is IC50>10,000 nM
# [1] = target: T2, human AKT1 catalytic domain (Homo sapiens, UniProt P31749); test: fluorescence coupling (TR-FRET) enzymatic assay, AKT1 off-target control; details: 0.5 nM enzyme, 4 μM ATP, 50 nM Ulight-CREBTide, one hour room temperature
# T2 construct: GST; purchased Carna BioSciences 01-101
# Protocol: as §1, §2, §3
# [2] = target: T3, human ROCK2 enzyme kinase domain (Homo sapiens, UniProt O75116); test: fluorescence coupling (TR-FRET) enzymatic assay, ROCK2; details: 4 nM enzyme, 50 nM Ulight-CREBTide, one hour room temperature
# T3 construct: GST; purchased Carna BioSciences 01-110
# Protocol: as §1, §2, §3
# [3] = target: T4, human ROCK1 catalytic domain (Homo sapiens, UniProt Q13464); test: fluorescence coupling (TR-FRET) enzymatic assay, ROCK1
# T4 construct: GST; purchased Carna BioSciences 01-109
# Protocol: as §2
# The reaction mixtures were incubated at room temperature for one hour. After one hour, the reaction was stopped by the addition of a 10 solution of an Europium-labelled phospho-CREB (Ser133) antibody (Perkin Elmer, Catalog #TRF0200) in LANCE buffer supplemented with 20 mM EDTA. The stopped reaction mixtures were incubated at room temperature for 90 minutes. […] The ICso value for each compound was determined from each dose-response curve using GraphPad Prism 7 software with a sigmodial dose response.
# [4] = target: T5, cGMP-dependent protein kinase 1 (PKG or PRKG1) (Homo sapiens, UniProt Q13976); test: fluorescence coupling (TR-FRET) enzymatic assay, PKG off-target control; details: 8 nM enzyme, 30 μM ATP, 50 nM Ulight-CREBTide, one hour room temperature
# T5 construct: GST; purchased Carna BioSciences 01-142
# T5 sequence (Q13976 1-686 isoform Q13976-2): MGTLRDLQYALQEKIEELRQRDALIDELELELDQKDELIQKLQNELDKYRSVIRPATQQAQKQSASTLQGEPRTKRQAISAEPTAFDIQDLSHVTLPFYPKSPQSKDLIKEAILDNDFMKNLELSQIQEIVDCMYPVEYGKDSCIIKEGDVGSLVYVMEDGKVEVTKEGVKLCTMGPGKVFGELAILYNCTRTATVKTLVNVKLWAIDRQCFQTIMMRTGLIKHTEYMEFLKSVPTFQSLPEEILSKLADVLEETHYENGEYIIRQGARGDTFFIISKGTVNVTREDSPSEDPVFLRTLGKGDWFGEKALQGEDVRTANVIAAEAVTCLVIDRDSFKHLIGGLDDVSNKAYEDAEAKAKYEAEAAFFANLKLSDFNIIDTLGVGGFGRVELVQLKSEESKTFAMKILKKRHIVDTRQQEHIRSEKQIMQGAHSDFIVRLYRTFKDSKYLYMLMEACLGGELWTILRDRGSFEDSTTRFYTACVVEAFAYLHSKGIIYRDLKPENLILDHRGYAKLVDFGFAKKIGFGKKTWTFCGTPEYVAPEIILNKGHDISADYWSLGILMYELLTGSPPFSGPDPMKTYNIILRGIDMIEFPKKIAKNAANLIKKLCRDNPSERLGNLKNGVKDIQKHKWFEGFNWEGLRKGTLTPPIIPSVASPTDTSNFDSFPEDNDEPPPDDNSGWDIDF
# Protocol: as §1, §2, §3
# [5] = 4 nM enzyme, 4 μM ATP, 50 nM Ulight-CREBTide, one hour room temperature, read-out: ROCK1 IC50
# T2 sequence (P31749 104-480): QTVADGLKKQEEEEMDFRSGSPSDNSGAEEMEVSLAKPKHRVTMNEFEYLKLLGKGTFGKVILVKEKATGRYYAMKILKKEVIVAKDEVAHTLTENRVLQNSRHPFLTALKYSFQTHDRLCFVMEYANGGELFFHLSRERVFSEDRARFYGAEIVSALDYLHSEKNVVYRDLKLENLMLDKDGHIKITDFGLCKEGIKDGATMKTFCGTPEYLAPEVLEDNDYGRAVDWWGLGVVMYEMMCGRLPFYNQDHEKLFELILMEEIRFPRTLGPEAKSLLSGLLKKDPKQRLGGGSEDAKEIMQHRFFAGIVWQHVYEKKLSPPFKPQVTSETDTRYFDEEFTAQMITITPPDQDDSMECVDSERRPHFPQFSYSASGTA
# T3 sequence (O75116 1-553): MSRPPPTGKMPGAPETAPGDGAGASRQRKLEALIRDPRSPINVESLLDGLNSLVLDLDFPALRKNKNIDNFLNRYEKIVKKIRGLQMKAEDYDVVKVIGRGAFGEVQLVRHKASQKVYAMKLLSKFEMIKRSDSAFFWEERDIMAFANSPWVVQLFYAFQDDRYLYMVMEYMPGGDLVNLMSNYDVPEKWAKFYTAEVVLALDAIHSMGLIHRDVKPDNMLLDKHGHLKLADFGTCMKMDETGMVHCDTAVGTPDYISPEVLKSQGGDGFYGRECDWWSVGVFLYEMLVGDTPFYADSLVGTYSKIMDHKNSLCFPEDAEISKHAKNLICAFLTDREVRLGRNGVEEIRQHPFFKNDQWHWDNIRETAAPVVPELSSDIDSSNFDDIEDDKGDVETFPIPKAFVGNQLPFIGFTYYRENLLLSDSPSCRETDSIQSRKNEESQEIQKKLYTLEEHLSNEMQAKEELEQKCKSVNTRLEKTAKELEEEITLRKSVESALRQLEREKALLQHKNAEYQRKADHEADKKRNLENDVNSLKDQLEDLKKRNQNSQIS
# T4 sequence (Q13464 1-477): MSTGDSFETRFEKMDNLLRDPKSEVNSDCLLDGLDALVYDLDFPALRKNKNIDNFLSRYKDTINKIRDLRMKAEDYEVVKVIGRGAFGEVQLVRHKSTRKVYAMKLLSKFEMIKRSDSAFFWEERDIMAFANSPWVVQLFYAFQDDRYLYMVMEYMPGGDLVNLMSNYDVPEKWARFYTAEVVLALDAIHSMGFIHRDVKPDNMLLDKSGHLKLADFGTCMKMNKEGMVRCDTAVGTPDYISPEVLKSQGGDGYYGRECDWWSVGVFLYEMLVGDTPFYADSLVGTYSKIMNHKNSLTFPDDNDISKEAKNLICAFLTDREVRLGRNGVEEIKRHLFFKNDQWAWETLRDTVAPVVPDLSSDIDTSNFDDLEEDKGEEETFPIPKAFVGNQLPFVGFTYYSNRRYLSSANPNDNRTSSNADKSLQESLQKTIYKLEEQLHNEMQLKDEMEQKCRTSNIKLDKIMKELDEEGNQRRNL
SMILES,IC50 (PKACα (PRKACA)) [µM],IC50 [1] [µM],IC50 [2] [µM],"IC50 [3, 5] [µM]",IC50 [4] [µM],IC50 [3] [µM]
"O=c1[nH]ccc2c(S(=O)(=O)N3CCc4c3cccc4C(F)(F)F)cccc12 [Example 8, 5-((4-(Trifluoromethyl)indolin-1-yl)sulfonyl)isoquinolin-1 (2H)-one]",> 10,> 10,> 10,> 10,> 10,–
"O=c1[nH]ccc2c(S(=O)(=O)N3CCc4c(CO)cccc43)cccc12 [Example 7, 5-((4-(Hydroxymethyl)indolin-1-yl)sulfonyl)isoquinolin-1 (2H)-one]",> 10,> 10,1 to 10,–,> 10,1 to 10
"CC1(C)CN(S(=O)(=O)c2cccc3c(=O)[nH]ccc23)c2ccccc21 [Example 12, 5-((3,3-Dimethylindolin-1-yl)sulfonyl)isoquinolin-1 (2H)-one]",> 10,> 10,> 10,> 10,> 10,–
"O=c1[nH]ccc2c(S(=O)(=O)N3CCc4ccc(Cl)cc43)cccc12 [Example 4, 5-((6-Chloroindolin-1-yl)sulfonyl)isoquinolin-1 (2H)-one]",> 10,> 10,0.1 to 1,0.1 to 1,> 10,–
"CC1CN(S(=O)(=O)c2cccc3c(=O)[nH]ccc23)c2ccccc21 (centres unmarked) [Example 13, 5-((3-Methylindolin-1-yl)sulfonyl)isoquinolin-1 (2H)-one]",> 10,> 10,> 10,> 10,> 10,–
"CCc1cccc2c1CCN2S(=O)(=O)c1cccc2c(=O)[nH]ccc12 [Example 10, 5-((4-ethylindolin-1-yl)sulfonyl)isoquinolin-1 (2H)-one]",> 10,> 10,> 10,> 10,> 10,–

# The next lines start with the values.
IC50 (PKACα (PRKACA)) [µM],IC50 [1] [µM],IC50 [2] [µM],"IC50 [3, 5] [µM]",IC50 [4] [µM],IC50 [3] [µM],SMILES
> 10,> 10,< 0.1,< 0.1,1 to 10,–,"CC(=O)Nc1cc(C#N)cc2c1CCN2S(=O)(=O)c1cccc2c(=O)[nH]cc(Cl)c12 [Example 35, N-(1-((4-chloro-1-oxo-1,2-dihydroisoquinolin-5-yl)sulfonyl)-6-cyanoindolin-4-yl)acetamide]"
> 10,> 10,0.1 to 1,0.1 to 1,> 10,–,"Cc1c[nH]c(=O)c2cccc(S(=O)(=O)N3CCc4ncc(C#N)cc43)c12 [Example 39, 1-((4-methyl-1-oxo-1,2-dihydroisoquinolin-5-yl)sulfonyl)-2,3-dihydro-1H-pyrrolo[3,2-b]pyridine-6-carbonitrile]"
> 10,> 10,1 to 10,1 to 10,> 10,–,"Cc1cnc(O)c2cccc(S(=O)(=O)N3CCc4ccc(Cl)cc43)c12 [Example 24, 5-((6-Chloroindolin-1-yl)sulfonyl)-4-methylisoquinolin-1-ol]"
0.1 to 1,< 0.1,< 0.1,< 0.1,1 to 10,–,Cc1c[nH]c(=O)c2cccc(S(=O)(=O)N3CCc4c(NCCN5C[C@H]6C[C@@H]5CO6)cc(C#N)cc43)c12 [Example 45]
> 10,> 10,0.1 to 1,0.1 to 1,> 10,–,"CN(C)c1cc(C#N)cc2c1CCN2S(=O)(=O)c1cccc2c(=O)[nH]cc(Cl)c12 [Example 37, 1-((4-chloro-1-oxo-1,2-dihydroisoquinolin-5-yl)sulfonyl)-4-(dimethylamino)indoline-6-carbonitrile]"
> 10,> 10,< 0.1,0.1 to 1,> 10,–,"N#Cc1ccc2c(c1)N(S(=O)(=O)c1cccc3c(=O)[nH]ccc13)CC2 [Example 15, 1-((1-Oxo-1,2-dihydroisoquinolin-5-yl)sulfonyl)indoline-6-carbonitrile]"
> 10,> 10,0.1 to 1,0.1 to 1,> 10,–,Cc1cc(C#N)cc2c1CCN2S(=O)(=O)c1cccc2c(=O)[nH]ccc12 [Example 18]

# Reference: patent US11912719B2, “Substituted isoquinolines as rock kinase inhibitors” (Cervello Therapeutics LLC, priority 2018, dated 2024)
